In patent publication US7816393B2, “Isoindoline compounds and methods of their use” (Celgene Corporation, priority 2008, dated 2010):

Structure (SMILES): NC(=O)C(CCC(=O)O)N1Cc2c(N)cccc2C1=O (stereo not shown) [Example 5.2, 4-(4-Amino-1-oxo-1,3-dihydro-isoindol-2-yl)-4-carbamoyl-butyric acid]
- melting point: 334 to 336 °C
